Measurements as given in the NIST ThermoML archive (doi:10.1016/j.fluid.2008.01.024).
± gives the expanded uncertainty stated by the source. Each block holds one compound with its values, some of them ahead of it.

Experiments:
[1] = relative permittivity at zero frequency (dimensionless); settings: 303.15 K; 101 kPa; Liquid; capacitive measurement method
[2] = relative permittivity at zero frequency (dimensionless); xn = mol fraction of the nth substance listed; settings: 303.15 K, 101 kPa, Liquid, capacitive measurement method

Compound: CN(C)CCO [2-(N,N-dimethylamino)ethanol]
relative permittivity at zero frequency [1]: 17.18 ± 0.1

Compound: CN(C)CCO [2-(N,N-dimethylamino)ethanol] + OCC(O)CO
relative permittivity at zero frequency ([2]; x2 = 0): 17.18 ± 0.1
relative permittivity at zero frequency ([2]; x2 = 0.09): 18.66 ± 0.11
relative permittivity at zero frequency ([2]; x2 = 0.175): 20.4 ± 0.12
relative permittivity at zero frequency ([2]; x2 = 0.257): 22.09 ± 0.13
relative permittivity at zero frequency ([2]; x2 = 0.334): 23.83 ± 0.14
relative permittivity at zero frequency ([2]; x2 = 0.409): 25.5 ± 0.15
relative permittivity at zero frequency ([2]; x2 = 0.48): 27.25 ± 0.16
relative permittivity at zero frequency ([2]; x2 = 0.547): 28.98 ± 0.17
relative permittivity at zero frequency ([2]; x2 = 0.612): 30.54 ± 0.18
relative permittivity at zero frequency ([2]; x2 = 0.675): 32.59 ± 0.2
relative permittivity at zero frequency ([2]; x2 = 0.734): 33.74 ± 0.2
relative permittivity at zero frequency ([2]; x2 = 0.792): 35.03 ± 0.21
relative permittivity at zero frequency ([2]; x2 = 0.847): 37.13 ± 0.22
relative permittivity at zero frequency ([2]; x2 = 0.9): 38.63 ± 0.23
relative permittivity at zero frequency ([2]; x2 = 0.951): 39.96 ± 0.24

relative permittivity at zero frequency [1]: 36.55 ± 0.22
Compound: CN(C)C=O [dimethylformamide]

relative permittivity at zero frequency ([2]; x2 = 0): 36.55 ± 0.22
Compound: CN(C)C=O [dimethylformamide] + OCC(O)CO

relative permittivity at zero frequency [1]: 106.14 ± 0.64
Compound: NC=O [formamide]

relative permittivity at zero frequency ([2]; x2 = 0): 106.14 ± 0.64
relative permittivity at zero frequency ([2]; x2 = 0.037): 103.13 ± 0.62
relative permittivity at zero frequency ([2]; x2 = 0.077): 100.3 ± 0.6
relative permittivity at zero frequency ([2]; x2 = 0.12): 96.91 ± 0.58
relative permittivity at zero frequency ([2]; x2 = 0.165): 93.46 ± 0.56
relative permittivity at zero frequency ([2]; x2 = 0.214): 89.87 ± 0.54
relative permittivity at zero frequency ([2]; x2 = 0.266): 85.74 ± 0.51
relative permittivity at zero frequency ([2]; x2 = 0.322): 81.37 ± 0.49
relative permittivity at zero frequency ([2]; x2 = 0.383): 76.3 ± 0.46
relative permittivity at zero frequency ([2]; x2 = 0.449): 71.94 ± 0.43
relative permittivity at zero frequency ([2]; x2 = 0.521): 66.48 ± 0.4
relative permittivity at zero frequency ([2]; x2 = 0.599): 61.52 ± 0.37
relative permittivity at zero frequency ([2]; x2 = 0.685): 56.42 ± 0.34
relative permittivity at zero frequency ([2]; x2 = 0.779): 50.76 ± 0.3
relative permittivity at zero frequency ([2]; x2 = 0.884): 45.45 ± 0.27
Compound: NC=O [formamide] + OCC(O)CO
